Values of other authors as cited in patent publication US11590077B2, “Fulvestrant formulations and methods of their use” (EAGLE PHARMACEUTICALS, INC., priority 2017, dated 2023).

Details: background statement

For `C[C@]12CC[C@@H]3c4ccc(O)cc4C[C@@H](CCCCCCCCC[S+]([O-])CCCC(F)(F)C(F)(F)F)[C@H]3[C@@H]1CC[C@@H]2O` (stereo partly shown) [Fulvestrant, 7-(9-(4,4,5,5,5-pentafluoropentylsulfinyl)nonyl) estra-1,3,5(10)-triene-3,17-diol], the aqueous solubility is given as “extremely low”.
